Assay results published in patent publication US8901038B2, “Biphenyl-substituted cyclic ketoenols” (Bayer CropScience AG, priority 2010, dated 2014).

How the values were obtained:
Boophilus microplus = Boophilus microplus test (BOOPMI injection); type: in vivo; details: application rate 20 μg/animal; injection into the abdomen; after 7 days
Protocol: Boophilus microplus Test (BOOPMI Injection)
(§1) • Solvent: Dimethyl sulphoxide
To produce a suitable preparation of active compound, 10 mg of active compound are mixed with 0.5 ml of solvent and the concentrate is diluted with solvent to the desired concentration. The solution of active compound is injected into the abdomen (Boophilus microplus) and the animals are transferred into dishes and stored in a climatized room. The efficacy is monitored for deposition of fertile eggs.
After 7 days, the effect in % is determined. 100% means that none of the ticks has laid any fertile eggs.

Lucilia cuprina larvae = assay: Lucilia cuprina test (LUCICU); type: in vivo; details: application rate 100 ppm; treated horse meat; after 2 days
Protocol: Lucilia cuprina test (LUCICU)
as §1
To produce a suitable preparation of active compound, 10 mg of active compound are mixed with 0.5 ml of dimethyl sulphoxide and the concentrate is diluted with water to the desired concentration. Containers containing horse meat treated with the active compound preparation of the desired concentration are populated with about 20 Lucilia cuprina larvae.
After 2 days, the kill in % is determined. 100% means that all larvae have been killed; 0% means that none of the larvae have been killed.

[1] = test system: caterpillars of the armyworm (Spodoptera frugiperda); assay: Spodoptera frugiperda test (SPODFR spray treatment); type: in vivo; details: application rate 500 g/ha; maize leaf discs sprayed; after 7 days
Protocol: Spodoptera frugiperda Test (SPODFR Spray Treatment)
(§2) • Solvents: 78.0 parts by weight of acetone • 1.5 parts by weight of dimethylformamide • Emulsifier: 0.5 part by weight of alkylaryl polyglycol ether
To produce a suitable preparation of active compound, 1 part by weight of active compound is mixed with the stated amounts of solvent and emulsifier, and the concentrate is diluted with emulsified water to the desired concentration. Discs of maize leaves (Zea mays) are sprayed with an active compound preparation of the desired concentration and, after drying, populated with caterpillars of the armyworm (Spodoptera frugiperda).
After 7 days, the effect in % is determined. 100% means that all caterpillars have been killed; 0% means that none of the caterpillars have been killed.

[2] = test system: green peach aphid (Myzus persicae); assay: Myzus test (MYZUPE spray treatment); type: in vivo; details: application rate 500 g/ha; Chinese cabbage leaf discs sprayed; after 6 days
Protocol: Myzus Test (MYZUPE Spray Treatment)
• Solvents: 78 parts by weight of acetone • 1.5 parts by weight of dimethylformamide • Emulsifier: 0.5 part by weight of alkylaryl polyglycol ether
To produce a suitable preparation of active compound, 1 part by weight of active compound is mixed with the stated amounts of solvent and emulsifier, and the concentrate is diluted with emulsifier-containing water to the desired concentration. Discs of Chinese cabbage (Brassica pekinensis) which are infested by all stages of the green peach aphid (Myzus persicae) are sprayed with an active compound preparation of the desired concentration. After 6 days, the effect in % is determined. 100% means that all aphids have been killed; 0% means that none of the aphids have been killed.

[3] = test system: greenhouse red spider mite (Tetranychus urticae); assay: Tetranychus test; OP-resistant (TETRUR spray treatment); type: in vivo; details: application rate 100 g/ha; bean leaf discs sprayed; after 6 days
Protocol: Tetranychus Test; OP-Resistant (TETRUR Spray Treatment)
as §2
To produce a suitable preparation of active compound, 1 part by weight of active compound is mixed with the stated amounts of solvent and emulsifier, and the concentrate is diluted with emulsifier-containing water to the desired concentration. Discs of bean leaves (Phaseolus vulgaris), which are infested by all stages of the greenhouse red spider mite (Tetranychus urticae) are sprayed with an active compound preparation of the desired concentration.
After 6 days, the effect in % is determined. 100% means that all spider mites have been killed; 0% means that none of the spider mites have been killed.

Meloidogyne incognita = Meloidogyne incognita test (MELGIN); type: in vivo; details: application rate 20 ppm; lettuce roots; after 14 days
Protocol: Meloidogyne incognita Test (MELGIN)
as §2
To produce a suitable preparation of active compound, 1 part by weight of active compound is mixed with the stated amounts of solvents and emulsifier, and the concentrate is diluted with water to the desired concentration. Containers are filled with sand, solution of active compound, Meloidogyne incognita egg/larvae suspension and lettuce seeds. The lettuce seeds germinate and the plants develop. On the roots, galls are formed. After 14 days, the nematicidal activity is determined in % by the formation of galls. 100% means that no galls are found; 0% means that the number of galls on the treated plants corresponds to that of the untreated controls.

[4] = test system: larvae of the mustard beetle (Phaedon cochleariae); assay: Phaedon test (PHAECO spray treatment); type: in vivo; details: application rate 500 g/ha; Chinese cabbage leaf discs sprayed; after 7 days
Protocol: Phaedon Test (PHAECO Spray Treatment)
as §2
To produce a suitable preparation of active compound, one part by weight of active compound is mixed with the stated amounts of solvents and emulsifier, and the concentrate is diluted with emulsifier-containing water to the desired concentration. […].
After 7 days, the effect in % is determined. 100% means that all beetle larvae have been killed; 0% means that none of the beetle larvae have been killed.

[5] = Text: Use is made of leaves which, fully developed, are cut from apple trees of the cultivar Golden Delicious.
Only the cuticles, free from hairs and stoma, of the upper sides of the leaves are then used. They are washed repeatedly alternating with water and a buffer solution of pH 7. The clean cuticles obtained are then mounted on Teflon plates and smoothed and dried with a gentle stream of air.
In the next step, the cuticle membranes obtained in this manner are placed into stainless steel diffusion cells (=transport chambers) for membrane transport studies. To this end, the cuticles are placed with a pincette into the centre of the edges, coated with silicone fat, of the diffusion cells and closed with a ring, which is also treated with fat. The arrangement is chosen such that the morphological outside of the cuticles is facing outwards, i.e. exposed to air, whereas the original inside is facing the interior of the diffusion cell.
The diffusion cells are filled with a 30% strength ethylene glycol/water solution. To determine the penetration, in each case 10 μl of the spray liquor of the composition below are applied to the outside of the cuticles. The spray liquor is prepared using local tap water of medium hardness.
After the application of the spray liquors, the water is allowed to evaporate and the chambers are inverted and placed into thermostatic tubs in which temperature and atmospheric humidity over the cuticles can be adjusted using a gentle stream of air onto the cuticles with the spray coating (35° C., 60% rh).

SMILES: O=C1NC2(CCOCC2)C(O)=C1c1c(Cl)ccc(-c2ccc(Cl)cc2)c1Cl [Example I-1-a-2]
- efficacy (deposition of fertile eggs) (Boophilus microplus): 95%
- efficacy (kill of larvae) (Lucilia cuprina larvae): 100%
- efficacy (caterpillars killed) [1]: 100%
- efficacy (aphids killed) [2]: 100%

SMILES: CCc1c(-c2ccc(F)cc2)ccc(C)c1C1=C(O)C2(CCOCC2)NC1=O [Example I-1-a-10]
- efficacy (deposition of fertile eggs) (Boophilus microplus): 80%
- efficacy (kill of larvae) (Lucilia cuprina larvae): 90%
- efficacy (spider mites killed) [3]: 100%
- efficacy (aphids killed) [2]: 100%

SMILES: Cc1ccc(-c2ccc(Cl)cc2)c(Cl)c1C1=C(O)C2(CCOCC2)NC1=O [Example I-1-a-11]
- efficacy (deposition of fertile eggs) (Boophilus microplus): 90%
- efficacy (nematicidal activity by formation of galls) (Meloidogyne incognita): > 80%
- efficacy (kill of larvae) (Lucilia cuprina larvae): 100%
- efficacy (caterpillars killed) [1]: 83%
- efficacy (spider mites killed) [3]: 100%
- efficacy (aphids killed) [2]: 100%

SMILES: Cc1ccc(-c2ccc(F)cc2)c(Cl)c1C1=C(O)C2(CCOCC2)NC1=O [Example I-1-a-12]
- efficacy (beetle larvae killed) [4]: 100%
- efficacy (deposition of fertile eggs) (Boophilus microplus): 95%
- efficacy (kill of larvae) (Lucilia cuprina larvae): 100%
- efficacy (caterpillars killed) [1]: 100%
- efficacy (spider mites killed) [3]: 100%
- efficacy (aphids killed) [2]: 100%

SMILES: Cc1c(-c2ccc(F)cc2)ccc(Cl)c1C1=C(O)C2(CCOCC2)NC1=O [Example I-1-a-13]
- efficacy (deposition of fertile eggs) (Boophilus microplus): 80%
- efficacy (kill of larvae) (Lucilia cuprina larvae): 90%
- efficacy (caterpillars killed) [1]: 100%
- efficacy (spider mites killed) [3]: 100%
- efficacy (aphids killed) [2]: 100%

SMILES: COC1CCC2(CC1)NC(=O)C(c1c(Cl)ccc(-c3ccc(F)cc3)c1C)=C2O (centres unmarked) [Example I-1-a-14]
- efficacy (beetle larvae killed) [4]: 100%
- efficacy (deposition of fertile eggs) (Boophilus microplus): 95%
- efficacy (kill of larvae) (Lucilia cuprina larvae): 100%
- efficacy (caterpillars killed) [1]: 100%
- efficacy (spider mites killed) [3]: 90%
- efficacy (aphids killed) [2]: 100%

SMILES: Cc1c(-c2ccc(Cl)cc2)ccc(Cl)c1C1=C(O)C2(CCOCC2)NC1=O [Example I-1-a-15]
- efficacy (kill of larvae) (Lucilia cuprina larvae): 100%
- efficacy (caterpillars killed) [1]: 83%
- efficacy (spider mites killed) [3]: 90%
- efficacy (aphids killed) [2]: 100%

SMILES: CCON1CCC2(CC1)NC(=O)C(c1c(CC)ccc(-c3ccc(Cl)cc3)c1CC)=C2O [Example I-1-a-25]
- efficacy (beetle larvae killed) [4]: 100%
- Penetration after 48 h/% EC + AS (0.7 g/l) [5]: 2%
- Penetration after 48 h/% EC + RME (1 g/l) [5]: 4%
- Penetration after 48 h/% EC + RME (1 g/l) + AS (0.7 g/l) [5]: 10%
- efficacy (spider mites killed) [3]: 100%
- efficacy (aphids killed) [2]: 100%
